Consider 80 molecules from the METLIN SMRT retention time set (Domingo-Almenara et al. 2019).

Molecules are shown by their SMILES.

The series is described as follows: gradient 5% acetonitrile 3 min, to 50% in 2 min, to 85% in 15 min, held 3 min, 100 µL/min. The conditions noted are these: column: Zorbax Extend-C18 2.1 x 50 mm; eluents: water / acetonitrile, 0.1% formic acid. A digest of the protocol:
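In both positive and negative ionization mode, a quadrupole time-of-flight mass spectrometer coupled to HPLC analyzed pure standards run in mixtures of ~100 molecules. The Zorbax Extend-C18 column (2.1 × 50 mm, 1.8 μm) was operated at 100 μL/min with water and acetonitrile, each containing 0.1% formic acid. The dead volume was 40 μL and the dwell volume 900 μL. Retention time came from adduct peaks that were computationally picked and individually inspected by hand.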
`COc1ccccc1NC(=O)N1C[C@@H](F)C[C@H]1C(=O)N1CCc2ccccc2C1`: the RP-LC retention time came to 828 s. Take `O=C(CSc1ccc(F)cc1)OCc1cc(-c2ccc3c(c2)OCO3)on1`: the RP-LC retention time worked out at 1020 s.

For the molecule `O=C(Nc1nccs1)C1CCN(Cc2noc(-c3ccc(F)cc3)n2)CC1`, the RP-LC retention time was determined as 643 s. In the case of `CC(=O)O[C@]1(C(C)=O)CC[C@H]2[C@@H]3CCC4=CC(=O)CCC4=C3[C@@H](c3ccc(N(C)C)cc3)C[C@@]21C`, the RP-LC retention time is 874 s. In the case of `O=C(Nc1ccc2c(c1)CCC2)C1CCc2nc(N3CCCCC3)ncc2C1` (stereo not given) it was 905 s; in that of `CCOc1ccc(NC(=O)c2c(C)sc3ncnc(N4CCCC(C)C4)c23)cc1` (stereo not given), 1200 s. In the case of `CCc1onc(C)c1C1CCCN1C(=O)c1cccc(F)c1` (stereo not given) it was 784 s; in that of `Nc1nc(-c2ccccc2)nn1C(=O)c1ccccc1F`, 862 s; in that of `CCOC(=O)C1=C(C)NC2=C(C(=O)c3ccccc32)C1c1ccccc1OC` (stereo not given), 950 s.

`CCn1c(C(=O)NCCc2c[nH]c3ccccc23)cc2cc(S(=O)(=O)N(C)C)ccc21` displayed an RP-LC retention time of 969 s. `CC(C)N1CCN(C(=O)c2ccc(CN3CCN(Cc4ccccc4)C(=O)C3=O)cc2)CC1` gave an RP-LC retention time of 610 s. The molecule `CCC(C)NC(=O)c1c(O)c2sccc2n(Cc2ccccc2)c1=O` (stereo not given) displayed an RP-LC retention time of 1310 s. Turning to `O=S(=O)(Cc1ccccc1)N1CCC2(CC1)CC(OCc1ccccc1)CCO2` (stereo not given), the RP-LC retention time was found to be 1080 s.

As for `CS(=O)(=O)N1CCC(C(=O)NC2CCCCC2)Oc2ccc(Cl)cc21` (stereo not given), the RP-LC retention time was 922 s.

Molecule `CCCc1cc(N2CCN(C(=O)c3ccc(C)s3)CC2)nc2nnc(C)n12` registered an RP-LC retention time of 643 s. As for `COc1ccc(N(CCC#N)S(=O)(=O)c2cccc3nsnc23)cc1`, the figure is 789 s; as for `Cc1nn(-c2nc3ccccc3[nH]2)c2c1C(=O)CC(/C=C/c1ccccc1)C2` (stereo not given), 1030 s; as for `COc1ccc(NC(=O)c2cc(S(=O)(=O)N3CCC(C)CC3)cn2C)c(OC)c1`, 1020 s. As for `CC(C)CCNC(=O)c1ccc(Oc2nccnc2N2CCC(C)CC2)cc1`, the figure is 1170 s; as for `Fc1cccc(-c2nc3ncccn3c2NC2CCCCC2)c1`, 834 s; as for `COc1cc(NC(=O)N2CCN(C)c3ncccc32)cc(OC)c1OC`, 584 s.

As for `CCc1ccc(CNC(=O)C2CCN(c3cncnc3N3CCOCC3)CC2)cc1`, the RP-LC retention time came to 666 s. As to `C[C@H]1C/C=C/[C@H]2[C@@H]3O[C@]3(C)[C@@H](C)[C@H]3[C@H](Cc4ccccc4)NC(=O)[C@]32OC(=O)O/C=C/[C@](C)(O)C1=O`, the RP-LC retention time came out at 870 s. In the case of `CC(=O)Nc1c(C)nn(-c2ccccc2)c1N1CCC(C(=O)Nc2cccc(C(C)=O)c2)CC1` it was 709 s. In the case of `CCC(C)c1c(N)n(S(=O)(=O)c2ccc(C)cc2)oc1=O` (stereo not given) it was 932 s.

Molecule `O=C(NCC(O)c1ccsc1)c1ccc2nsnc2c1` (stereo not given) came in with an RP-LC retention time of 659 s. The molecule `Cc1cc(-c2nnc(-c3ccco3)o2)c(C)n1CC(=O)NCc1cccc(Cl)c1` yielded an RP-LC retention time of 886 s.

`CN(C)[C@@H]1CN(Cc2ccccc2C#N)C[C@H]1CO` gave an RP-LC retention time of 518 s. The molecule `CCOc1cc(=O)n2c(c1C(=O)Nc1cc(C)cc(C)c1)CCCC2` had an RP-LC retention time of 791 s.

In turn, `C[C@H]1CNCCc2ccc(Cl)cc21` returned an RP-LC retention time of 652 s.

`Cc1c(C(=O)N2CCCCC2)c(S(=O)(=O)N2CCN(c3ccccn3)CC2)c(C)n1C` came in with an RP-LC retention time of 629 s. The molecule `CCn1ccc(C(=O)NCC(=O)N2CCCc3ccccc32)n1` came in with an RP-LC retention time of 703 s. In the case of `COC(=O)C(C)N1CN(c2ccc(C)cc2)c2ncccc2S1(=O)=O` (stereo not given) it was 918 s; in that of `CCN(Cc1ccccc1)C(=O)Cn1nc2c(N3CCSCC3)nccn2c1=O`, 829 s. As for `O=C(O)Cc1sc(Nc2cccc3ccccc23)nc1-c1ccc(F)cc1`, the figure is 918 s; as for `CCn1cc(S(=O)(=O)N2CCC[C@H]2c2nc(-c3ccc(F)cc3)n[nH]2)cn1`, 714 s.

The molecule `COc1ccc(OC)c(NC(=O)NCC(c2cccnc2)c2cn(C)c3ccccc23)c1` (stereo not given) displayed an RP-LC retention time of 713 s. Molecule `CC(C)NC(C)Cc1ccc(I)cc1` (stereo not given) displayed an RP-LC retention time of 746 s. As for `CCC1Oc2ccc(S(=O)(=O)N3CCC(C(=O)Nc4ccc(Cl)cc4)CC3)cc2NC1=O` (stereo not given), the figure is 950 s; as for `COc1ccc(OCC(=O)Nc2nc(C)cc(C)c2-c2noc(C)n2)cc1`, 783 s. As for `Cc1ccc(CNC(=O)C2(C)CN(S(C)(=O)=O)CC(=O)N2c2ccc(F)cc2C)cc1` (stereo not given), the figure is 790 s. In the case of `COc1ccc(F)cc1S(=O)(=O)N1CCCC(Cn2c(C)nc3cccnc32)C1` (stereo not given) it was 680 s; in that of `CCN1C(=O)c2cccnc2Sc2cc(NC(=O)c3cccs3)ccc21`, 796 s.

`COc1ccccc1-c1csc(-c2nnn(-c3ccc(C)c(C)c3)c2N)n1` returned an RP-LC retention time of 1220 s.

Molecule `CCOc1ccccc1-n1c(C(C)N2CCN(C(=O)COc3ccc(Cl)cc3)CC2)nc2ccccc2c1=O` (stereo not given) returned an RP-LC retention time of 802 s.

`Cc1ccccc1NS(=O)(=O)c1cc(-c2[nH]ncc2C(=O)N2CCCCC2)oc1C` displayed an RP-LC retention time of 755 s. In the case of `COc1ccccc1Oc1ccc(S(=O)(=O)NCC(=O)O)cc1` it was 708 s. As for `Cc1ccc2[nH]cc(CCNC(=O)C3CCCN(c4nccc(C)n4)C3)c2c1` (stereo not given), the figure is 741 s; as for `O=C(NCc1ccccn1)c1cc(-c2cccnc2)nc2ccc(Br)cc12`, 898 s. In the case of `COc1cccc(-c2csc(Nc3cc(C)ccn3)n2)c1` it was 810 s. As to `Cc1cc(F)ccc1NC(=O)Cc1nnc(-c2cnccn2)o1`, the RP-LC retention time worked out at 659 s. `CCCNC(=O)CCc1c(C)c(C(=O)OCC)c(C)n1C` displayed an RP-LC retention time of 779 s. In the case of `O=C([C@@H]1C[C@H](F)CN1C(=O)Nc1ccccc1)N1CCCCC1` it was 653 s; in that of `O=C(c1cc(F)ccc1F)N1CCN(c2cc(-c3ccc(Cl)cc3)[nH]n2)CC1`, 847 s; in that of `O=C(Cn1ccn2nc(-c3ccccc3)c(CO)c2c1=O)Nc1ccc2c(c1)OCO2`, 1030 s. `CC(=O)N1CCc2ccc(C(=O)N3CCCCCC3)cc21` displayed an RP-LC retention time of 709 s. Take `CCC(C(=O)NCCN1CCN(CC)CC1)n1c2ccccc2c2cnn(C)c(=O)c21` (stereo not given): the RP-LC retention time was determined as 595 s.

Molecule `COCCCNC(=O)CN1c2ccccc2NC2=C(C(=O)CC(C)(C)C2)C1c1ccco1` (stereo not given) registered an RP-LC retention time of 725 s.

The molecule `CCNS(=O)(=O)c1cc(-c2c(C)noc2C)ccc1C` yielded an RP-LC retention time of 807 s. In the case of `CNC(=O)c1nc(C(C)(C)NC(=O)c2ccnn2C)nc2c1OCO2`, the RP-LC retention time stood at 603 s. As for `CC12NC(Cc3ccccc31)c1ccccc12` (stereo not given), the figure is 670 s; as for `COc1ccc2c(=O)c(Oc3ccccc3F)c(C)oc2c1`, 888 s; as for `Cc1ccc(CC(=O)Nc2ccc(-c3nc(Cn4cccn4)c(C)o3)cc2)cc1`, 880 s. For the molecule `O=C(NC1CC1)c1cc(-c2ccccc2)ns1`, the RP-LC retention time is 836 s. As for `Cc1sc(NC(=O)c2ccccc2Br)nc1-c1ccccc1`, the figure is 1090 s; as for `O=C(Nc1ccc2c(c1)OCCO2)c1ccc(-c2ccsc2)nc1`, 864 s. Molecule `Cc1nc2cc(-c3noc(/C=C/c4cccs4)n3)ccc2o1` registered an RP-LC retention time of 1080 s. As for `COc1cccc(-c2noc(C3CCCN3C(=O)Nc3ccc(OC)c(OC)c3)n2)c1` (stereo not given), the figure is 855 s. `O=C(CN1C(=O)c2ccccc2C1=O)Oc1ccc2nc(N3CCCCC3)sc2c1` displayed an RP-LC retention time of 923 s. `CC(=O)OC1CCN(C(=O)c2ccc(C#N)cc2)CC1` showed an RP-LC retention time of 698 s. In the case of `Cc1nc(-c2ccc(-c3noc(-c4cncc(Br)c4)n3)cc2)cs1` it was 1250 s. In the case of `Cc1cc(C(=O)NC2CCCCCC2)nn1C` it was 799 s; in that of `COc1ccc(C(=O)NCCc2c[nH]c3ccc(Cl)cc23)cc1OC`, 817 s; in that of `Clc1ccc(-c2noc(Cc3nc(-c4ccccc4)cs3)n2)cc1`, 1290 s.

`Cc1ccc(CNC(=O)C2CCN(C(=O)c3cc(-c4cccnc4)n[nH]3)CC2)o1`: the RP-LC retention time stood at 586 s. For `COc1cccc(-c2noc(C3CC(=O)N(c4ccc(Cl)cc4)C3)n2)c1OC` (stereo not given), the RP-LC retention time stood at 963 s.

Molecule `Cc1ccc(C(=O)NC2CCCCCC2)cc1NC(=O)C1=CSCCO1` came in with an RP-LC retention time of 892 s. As to `CCOc1ccc(-c2nc(-c3ccc4c(c3)N(CC)C(=O)CO4)no2)cc1`, the RP-LC retention time was found to be 1240 s.

In turn, `O=C(Nc1ccc(OCc2nnc(-c3ccccc3)o2)cc1)c1ccoc1` had an RP-LC retention time of 808 s. In the case of `COCCN1C(=O)c2ccccc2C(C(=O)NCCCN2C(C)CCCC2C)C1c1cccs1` (stereo not given) it was 633 s.
